Data as given in patent US10940151B2, “Methods for treating renal disease” (Beth Israel Deaconess Medical Center, Inc., priority 2012, dated 2021).
“Also recorded” adds a separate entry of the source.

How the values were obtained:
Type in all cases: cell-based
[1] = system: APOL1 expression in endothelial cells; experiment: APOL1 expression in endothelial cells treated with TLR3 agonist poly(I:C) and inhibitors; settings: TLR3 agonist poly(I:C) (FIG. 8-13)
Method: Endothelial cells were treated with the TLR3 agonist poly(I:C) and with JAK inhibitors (FIGS. 8A-8D), Bx795(a TBK1/IKKe inhibitor) (FIG. 9), and chloroquine (FIG. 10). […] The TBK1/IKK e complex is used by both TLR and Rig-like receptor signaling mechanisms, and therefore offers a broader target for inhibition of APOL1 expression than either pathway alone. Chloroquine and similar class of compounds may be particularly useful for inhibiting APOL1 expression when that expression is driven by endosomal pattern recognition receptors such as TLR3, TLR7, TLR8, TLR9, and in some cases TLR4. Even though TLR3 expression is described above as an example, these strategies are likely to be effective in blocking APOL1 expression driven by multiple inflammatory stimuli.
Endothelial cells were treated with the TLR3 agonist poly(I:C) and with NF-κB inhibitors (FIG. 11), PKR inhibitors (FIG. 12), and MAP kinase inhibitors (FIG. 13).

[2] = system: APOL1 mRNA expression in endothelial cells; experiment: APOL1 mRNA expression in endothelial cells treated with interferon beta and JAK inhibitors; settings: interferon beta (FIG. 4A-4C)
Description: JAK inhibitors are in clinical testing for autoimmune disease, transplant immunosuppression, and myelodysplastic syndromes. They are selective, rather than specific, for individual JAK inhibitors. For example, WHI-P131 targets JAK3, INCB018424 (ruxolitinib) targets […] and JAK2, and TG101348 targets JAK2.

[3] = system: APOL1 expression in podocytes; experiment: APOL1 expression in podocytes treated with TLR3 agonist poly(I:C) and inhibitors; settings: podocytes (not shown)
[4] = system: APOL1 mRNA expression in endothelial cells; experiment: APOL1 mRNA expression in endothelial cells after stimulation with interferons, TLR/RIG agonists or bacterial DNA; settings: interferon stimulation (FIG. 3A, 3B)
Description: HIV is a powerful inducer of APOL1 renal disease in individuals with the renal risk genotype. Other viruses such as parvovirus have been associated with FSGS. […] Cells have extracellular, endosomal, and cytoplasmic viral sensors such as TLRs, Rig-L1, and others. These genes are potential targets for reducing APOL1 expression.

APOL1 expression = experiment: shRNA knockdown experiments on poly(I:C)-induced APOL1 upregulation; settings: polyI:C versus control, GFP virus control (FIG. 14)
Description: To validate pharmacologic targets that may regulate pathogenic APOL1 expression, we used shRNA to determine specific genes that mediate the APOL1 upregulation induced by poly(I:C). These experiments allowed us to confirm targets identified above by pharmacologic methods and to identify additional known targets in these same pathways. […] The data shown in FIG. 14 validates several pathways identified by the pharmacological experiments described above and identifies additional pathways that can be targeted to decrease pathogenic APOL1 expression.

## Nc1ccc2ncnc(NCCc3ccc(Oc4ccccc4)cc3)c2c1 [6A4Q, 6-amino-4-(4-phenoxyphenylethylamino) quinazoline]
[1]
  effect on poly(I:C) induced APOL1 upregulation (in words): could be inhibited

## CC(C)(C)c1ccc(S(=O)(=O)/C=C/C#N)cc1 [Bay 11-7085]
[1]
  effect on poly(I:C) induced APOL1 upregulation (in words): could be inhibited

## O=C(NCCCNc1nc(Nc2cccc(NC(=O)N3CCCC3)c2)ncc1I)c1cccs1 [Bx795]
[1]
  effect on poly(I:C) induced APOL1 upregulation (in words): reduced the poly(I:C) induced increased in APOL1 expression

## N#CC[C@H](C1CCCC1)n1cc(-c2ncnc3[nH]ccc23)cn1 [INCB018424]
[2]
  effect on APOL1 upregulation caused by interferon beta (in words): block the potentially pathologic upregulation of APOL1

## C[S+]([O-])c1ccc(-c2nc(-c3ccncc3)c(-c3ccc(F)cc3)[nH]2)cc1 (stereo not shown) [SB203580]
[1]
  effect on poly(I:C) induced APOL1 upregulation (in words): inhibited blocked poly(I:C) induced APOL1 upregulation; also recorded: inhibited APOL1 expression

## Oc1c2ccccc2c2c3c(cccc13)N=N2 [SP600125]
[3]
  inhibition of APOL1 expression: 50%

## Cc1cnc(Nc2ccc(OCCN3CCCC3)cc2)nc1Nc1cccc(S(=O)(=O)NC(C)(C)C)c1 [TG101348]
[2]
  effect on APOL1 upregulation caused by interferon beta (in words): block the potentially pathologic upregulation of APOL1

## COc1cc2ncnc(Nc3ccc(O)cc3)c2cc1OC [WHI-P131]
[2]
  effect on APOL1 upregulation caused by interferon beta (in words): block the potentially pathologic upregulation of APOL1

## CCN(CC)CCCC(C)Nc1ccnc2cc(Cl)ccc12 (stereo not shown) [chloroquine]
[1]
  effect on poly(I:C) induced APOL1 upregulation (in words): reduced the poly(I:C) induced increased in APOL1 expression

## O=C1Nc2ccc3ncsc3c2/C1=C/c1c[nH]cn1 [imidazolo-oxindole PKR inhibitor]
[1]
  effect on poly(I:C) induced APOL1 upregulation (in words): blocks APOL1 upregulation
[1]; listed as drawing 4
  effect on poly(I:C) induced APOL1 upregulation (in words): completely blocked poly(I:C) induced APOL1 upregulation

## interferon gamma: type 2 (gamma) interferon
[4]
  upregulation of APOL1: up to 200 fold

## polyI:C
APOL1 expression
  stimulation of APOL1 expression (in words): strongly stimulates APOL1 expression
